This is an account of results in patent US5391555A, “Methods for treating inflammatory bowel disease with leukotriene synthesis inhibitors” (Miles Inc., priority 1993, dated 1995).

The subject of assay [1] is LTB4 / human blood polymorphonuclear leukocytes (PMN). Nature of the assay: response of human blood polymorphonuclear leukocytes (PMN): A23187-stimulated LTB4 in human whole blood. Format: cell-based. The conditions noted are these: Leukocyte, 0.5 h, LTB4, 30 μM ionophore A23187, 30 min, 37° C., read-out: ED50 human whole blood. The procedure: For evaluation of the response of human blood polymorphonuclear leukocytes (PMN), 0.5 ml aliquots of human blood with heparin as the anticoagulant are preincubated for 10 minutes with 2 μl dimethylsulfoxide (DMSO) alone or with DMSO containing the compound to be tested (shaken in water bath at 37° C.).
The PMN are then stimulated with a final concentration 30 μM of the ionophore A23187 for 30 minutes at 37° C. The reaction is terminated with 1 ml methanol. The incubate is cooled 20 minutes in an ice bath, vortexed, then centrifuged at 13,000 g.
The amount of LTB4 present in the removed supernatant is analysed by HPLC and/or radioimmune assays.

Another assay relates to human bronchial muscle. In words: human bronchial muscle contraction stimulated by anti-human IgE. Format: cell-based. The conditions noted are these: for IC50: contraction stimulated by anti-human IgE (1/1000), read-out: ED50 human bronchial muscle. The procedure:
For the measurement of human bronchial muscle contraction, bronchial rings were obtained from patients undergoing surgical resection of the lungs typical for lung cancer. The muscle rings were set up in organ baths under an initial load of 3 g and contracted with 100 μM acetylcholine in Tyrode's solution to provide a standardized contraction. The organs were then washed until they returned to the baseline tension in Tyrode's solution containing atropine 1 μM, indomethacin 3 μM and polaramine 1 μM at 37° C.
Contraction was stimulated by the treatment of the muscle strips with anti-human IgE (1/1000) with or without LSI. The intensity of the contractions were expressed as the percentage of the acetylcholine-inducedcontraction. The percentage of inhibition by the LSI was calculated from the ratio of the relative contractions. The activity of several of the well known LSIs of other structural classes (Zileuton & MK886) are compared below with the quinolines of the present invention.

The next assay relates to edema of the mouse ear. Nature of the assay: Mouse Ear Inflammation Test (arachidonic acid-induced edema). The conditions noted are these: oral, 60 minutes before arachidonic acid, swelling at 30 minutes, averaged over several experiments, read-out: Edema formation - ED50. Format: in vivo. The procedure:
Because it is known that leukotrienes are the major mediators of the edema which follows the application of arachidonic acid on the skin of the mouse ear and because the human clinical trials have implicated leukotrienes in the pathology of Inflammatory Bowel Disease (IBD), the mouse ear inflammation test can be used as a model to predict efficacy in IBD.
In this test edema is induced by the topical application of 10 μl of a 20% arachidonic acid solution on the mouse ear. 60 minutes before arachidonic acid application the animals were treated orally with compound or vehicle. 30 minutes after the induction of inflammation the swelling of the ear was measured. The results averaged over several experiments are shown below.

For the next assay, the system named is LTB4. In words: TNBS-induced colitis in rats: LTB4 synthesis by excised colonic tissue. The conditions noted are these: 30 and 100 mg/kg orally bid, 7 days; tissue incubated in vitro 20 minutes. Format: in vivo, Male Wistar rats. The procedure:
(§1) A colitis resembling human ulcerative colitis can be induced in rats by the intracolonic infusion of trinitrobenzene sulfonic acid (Wallace et al., 1990, Am J Physiol. 258:G527-34).
(§2) Male Wistar rats were lightly anesthetized with ether, and a 2.3 mm rubber cannula inserted into the lumen of the colon via the anus. The cannula was advanced so that the tip was approximately 8 cm proximal to the anus. Colitis is induced by the administration of 0.25 ml of 50% ethanol (vol/vol) containing 30 mg of 2,4,6-trinitrobenzene sulfonic acid (TNB) through the cannula. After instilling the TNB-ethanol solution, the cannula was left in place for a few seconds then gently removed.
(§3) Animals were sacrificed at various time intervals after the administration of TNB-ethanol for examination of the level of LTB4 in the tissue and for histological examination.
(§4) R-(-)-2-cyclopentyl-2-[4-(2-quinolinyl-methoxy)-phenyl]-acetic acid, at doses of 30 and 100 mg/kg or placebo is administered orally to these animals bid beginning 2 hours before induction of colitis and continuing for the next 7 days. Two hours after the administration of the test compound, animals are sacrificed and samples of the grossly inflammed colonic tissue are excised and incubated in vitro for 20 minutes.

The next assay deals with bronchodilator in man. The conditions noted are these: compared with prediction from inhibition of neutrophil-dependent LTB4 synthesis at blood concentration; cited from earlier work.
The subject of assay [2] is TNBS-induced colitis in rats. Nature of the assay: TNBS-induced colitis in rats: colonic damage. The conditions noted are these: 30 and 100 mg/kg orally bid, 7 days; 14 days following induction; vs placebo. Format: in vivo, Male Wistar rats. The procedure: as §1, §2, §3
R-(-)-2-cyclopentyl-2-[4-(2-quinolinyl-methoxy)-phenyl]-acetic acid, at doses of 30 and 100 mg/kg or placebo is administered orally to these animals bid beginning 2 hours before induction of colitis and continuing for the next 7 days. Two hours after the administration of the test compound, animals are sacrificed and samples of the grossly inflammed colonic tissue are excised and incubated in vitro for 20 minutes. […]

For a further assay, the system named is TxB2. In words: TNBS-induced colitis in rats: TxB2 synthesis by excised colonic tissue. Format: in vivo, Male Wistar rats. The conditions noted are these: 30 and 100 mg/kg orally bid, 7 days; tissue incubated in vitro 20 minutes. The procedure: as §1, §2, §3, §4
Assay [3] concerns Dextran Sulfate-induced colitis in mice. Nature of the assay: Dextran Sulfate-induced colitis in mice. Format: in vivo. The conditions noted are these: 10 mg/kg or 30 mg/kg orally bid; 5% dextran sulfate in drinking water. The text has this: Mice, when provided 5% high molecular weight dextran sulfate in their drinking water for 5-7 days, develop an acute colitis with diarrhea, gross rectal bleeding, and weight loss (Okayasu et al., 1990, Gastroenterol, 98:694-702).

Each structure is given as a SMILES string.

Consider `CC(C)Cc1cc(C(C(=O)O)C2CCCCCC2)ccc1OCc1ccc2ccccc2n1` (single isomer, unassigned; (-)) [Formula III, (-)-2-cycloheptyl-2-[3-isobutyl-4-(2-quinolinyl-methoxy)-phenyl]-acetic acid], for which the IC50 is 3000 nM in assay [1] and 1000 nM in the assay on human bronchial muscle. Moreover, the ED50 in the assay with edema of the mouse ear came out at 12.5 mg/kg.
On the same counts, the results for `O=C(O)C(O)(c1ccc(OCc2ccc3ccccc3n2)cc1)C1Cc2ccccc2C1` (single isomer, unassigned; (-)) [Formula IV, (-)-2-hydroxy-2-(2-indanyl)-2-[4-(2-quinolinyl-methoxy)-phenyl]-acetic acid] are 4500 nM, 100 nM and 15 mg/kg.
On to `O=C(O)[C@@H](c1ccc(OCc2ccc3ccccc3n2)cc1)C1CCCC1` [Formula I, R-(-)-2-cyclopentyl-2-[4-(2-quinolinyl-methoxy)-phenyl]-acetic acid], for which the IC50 in assay [1] came to 17000 nM. For the same compound, the “synthesis of LTB4 in culture supernatants of inflamed colonic tissue” value in the assay on LTB4 is “markedly inhibited”. Besides, the “activity as a bronchodilator in man” value with bronchodilator in man is on record as “considerably greater than would have been predicted”. In assay [2], the “frequency and extent of the ulcerations” value is “reduces both the frequency of adhesions and the frequency and extend of the ulcerations”; the frequency of adhesions result was “reduces both the frequency of adhesions”. The IC50 in the assay on human bronchial muscle was determined as 800 nM. For the same compound, the ED50 in the assay with edema of the mouse ear was 48.7 mg/kg. The “synthesis of TxB2 in culture supernatants of inflamed colonic tissue” value in the assay with TxB2 is given as “not of TxB2”.
With `CS(=O)(=O)NC(=O)[C@@H](c1ccc(OCc2ccc3ccccc3n2)cc1)C1CCCCCC1` [Formula II, R-(-)-2-cycloheptyl-N-methylsulfonyl-2-[4-(2-quinolinyl-methoxy)-phenyl]-acetamide], the IC50 in assay [1] was 1100 nM. The IC50 in the assay with human bronchial muscle was 800 nM. Also, the ED50 with edema of the mouse ear amounted to 5.2 mg/kg. Further, in assay [3], the “occult blood in the stool” value is given as “reduction in occult blood in the stool”, the stool consistency entry is “improvement in stool consistency”, the symptoms of colitis result was “decrease in the symptoms of colitis” and the weight loss entry is listed as “reduction in weight loss”.
As for `CC(C)c1ccc2c(c1)c(SC(C)(C)C)c(CC(C)(C)C(=O)O)n2Cc1ccc(Cl)cc1` [MK886, reference compound], in assay [1], the IC50 was 430 nM. In the assay with human bronchial muscle (@ μM (concentration not given), anti-human IgE (1/1000)), the “percentage of inhibition, human bronchial muscle” value was 0-39%. The ED50 in the assay on edema of the mouse ear is around 100 mg/kg.
In the case of `CC(c1cc2ccccc2s1)N(O)C(N)=O` (stereo not drawn) [Zileuton, reference compound], in assay [1], the IC50 amounted to 690 nM. Also, the inhibition at 1 µM with human bronchial muscle (@ 1 μM, anti-human IgE (1/1000), read-out: percentage of inhibition, human bronchial muscle) was 4%. Also, in the assay with edema of the mouse ear, the ED50 is 47.4 mg/kg.

The term ED50 denotes the dose that gives a 50% effect, or the effect in half of the subjects. For orientation: inhibition means how much of the control response was suppressed.
